Data set [1] is described as follows: Stabilization of colored shampoo under fluorescent light (Delta E). As to conditions: 0.4 g HSS in 120 g shampoo, ambient temperature, 4 weeks. As to the method:
The stabilizer compound according to Example 1, Synoxyl™ HSS, was added to a commercial shampoo formulation in order to evaluate its ability to reduce the amount of dye fading following exposure to fluorescent lighting. The sample was prepared by dissolving 0.4 g of HSS in 5 ml of ethanol and then adding the solution to 120 g of Suave® Natural Fresh Mountain Strawberry Shampoo with agitation and agitated for 15 minutes. A sample of the unmodified shampoo and the modified shampoo are then placed into 20 ml glass scintillation vials. Both sets of vials were weathered under fluorescent light aging at ambient temperature for 4 weeks. The L*a*b coordinates before and after exposure are measured using X-Rite 938 Spectro-densitometer. Color change is expressed as Delta E (ΔE) which is calculated by the formula: ΔE=[(ΔL*)^2+(Δa*)^2+(Δb*)^2]^1/2
Following the 4 week exposure the change in color, Delta E, was 21.6 for the unmodified shampoo and 12.3 for the modified shampoo.

A short description of data set [2]: Stability of HSS in the presence of iron and copper ions (UV absorbance at 319 nm). Format: physicochemical. Particulars: acetate buffer pH 6.5/ethanol, room temperature. Here is the method:
A base buffer solution was prepared by dissolving 13.608 g of sodium acetate in 1000 ml water and then adjusting the pH to 6.5 with acetic acid to form a 0.1 M acetate solution and then combining 75 parts by weight of this solution with 25 parts by weight ethanol.
A copper sulfate solution was prepared by dissolving 24.968 mg of copper sulfate (CuSO4.5H2O) in 100 ml of the base buffer solution.
A ferric sulfate solution was prepared by dissolving 16.22 mg of […] in 100 ml of the base buffer solution.
Finally a 100 μM test solution of HSS was prepared by dissolving 27.8 mg of HSS in 10 ml of the base buffer solution and then diluting 0.1 ml of this solution to 10 ml with additional base buffer solution.
Two test solutions were prepared as follows:
Copper Stability: 0.1 ml of the 100 μM solution of HSS was combined with 0.1 ml of the 10 μM CuSO4 solution in a 10 ml volumetric flask and additional base buffer solution added to make up to volume (to 10 ml). […]
The two test solutions and a sample of the HSS solution were then evaluated to assess what, if any, auto-oxidation of the HSS occurred in the presence of Cu^2+ and Fe^3+ ions. Stability or instability was evaluated by monitoring the absorbance at 319 nm for HSS at room temperature using a Shimadzu spectrophotometer.

Consider `COc1cc(C=C(C(C)=O)C(C)=O)cc(OC)c1OC` [HSS, 3-(3,4,5-trimethoxybenzylidene)-2,4-pentanedione], for which the “change in color, Delta E” value in data set [1] is given as 12.3. For the same compound, the “stability (auto-oxidation) in the presence of iron and copper ions” value in data set [2] was “stable irrespective of the presence of iron and copper ions”.
